This test deals with Neisseria gonorrhoeae. Kind of test: EC50 determination: plate-based broth growth assay (absorbance at 600 nm) of Neisseria gonorrhoeae. The class given is cell-based. To be noted: absorbance 600 nm after 20 hours at 37° C./5% CO2, read-out: IC50 (Inhibitory concentration) against Neisseria gonorrhoeae. Put shortly: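 Mid-log culture diluted to ~10^5 cells/ml as inoculum and grown 20 hours at 37° C./5% CO2 across a 10-point compound dilution series. Growth read as absorbance at 600 nm; EC50 taken from transformed data as the concentration giving 50% response relative to no-compound controls.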

Molecules are shown by their SMILES. Structures can show the parent of a compound that is named as a salt. Bounds are passed on as bounds.

Regarding `CNCc1nnc(Nc2nc3cc(C(F)(F)F)ccc3o2)o1` [Example 93, N-(5-((Methylamino)methyl)-1,3,4-oxadiazol-2-yl)-5-(trifluoromethyl)benzo[d]oxazol-2-amine], the IC50 was at most 10 µM.
The figure for `FC(F)(F)c1cc2oc(Nc3nnc(C4CC4)o3)nc2cn1` [Example 51, N-(5-Cyclopropyl-1,3,4-oxadiazol-2-yl)-6-(trifluoromethyl)oxazolo[4,5-c]pyridin-2-amine] is at most 1 µM; for `Cc1noc(Nc2nc3cc(C(F)(F)F)ccc3o2)n1` [Example 31, N-(3-Methyl-1,2,4-oxadiazol-5-yl)-5-(trifluoromethyl)benzo[d]oxazol-2-amine] it is at most 1 µM; for `Clc1ccc2nc(Nc3ccon3)oc2c1` [Example 46, 6-Chloro-N-(isoxazol-3-yl)benzo[d]oxazol-2-amine] it is at most 1 µM.
For the compound `Cn1ccc(Nc2nc3cc(C(F)(F)F)ccc3o2)n1` [Example 38, N-(1-Methyl-1H-pyrazol-3-yl)-5-(trifluoromethyl)benzo[d]oxazol-2-amine], the IC50 is at most 10 µM.
Turning to `N#CC1CCN(Cc2nnc(Nc3nc4cc(C(F)(F)F)ccc4o3)o2)C1` (centres unmarked) [Example 76, 1-((5-((5-(triFluoromethyl)benzo[d]oxazol-2-yl)amino)-1,3,4-oxadiazol-2-yl)methyl)pyrrolidine-3-carbonitrile], the IC50 is at most 10 µM.
As to `FC(F)(F)c1ccc2oc(Nc3nnc([C@@H]4CCCN4)o3)nc2c1` [Example 146, (S)-N-(5-(pyrrolidin-2-yl)-1,3,4-oxadiazol-2-yl)-5-(trifluoromethyl)benzo[d]oxazol-2-amine hydrochloride], the IC50 is at most 1 µM.
Next, `Cc1nnc(Nc2nc3cc(C(F)(F)F)ccc3o2)n1C` [Example 143, N-(4,5-dimethyl-4H-1,2,4-triazol-3-yl)-5-(trifluoromethyl)benzo[d]oxazol-2-amine]: at most 1 µM.
Consider `FC(F)(F)c1cc2oc(Nc3nc4cnccc4o3)nc2cn1` [Example 161, N-(Oxazolo[4,5-c]pyridin-2-yl)-6-(trifluoromethyl)oxazolo[4,5-c]pyridin-2-amine], for which the IC50 was at most 100 µM.
As for `CN(C)CCNC(=O)c1csc(Nc2nc3cc(Cl)ccc3o2)n1` [Example 97, 2-((5-Chlorobenzo[d]oxazol-2-yl)amino)-N-(2-(dimethylamino)ethyl)thiazole-4-carboxamide], the IC50 was at most 1 µM.
The figure for `Cc1nnc(Nc2nc3c(Cl)cc(Cl)cc3o2)o1` [Example 40, 4,6-Dichloro-N-(5-methyl-1,3,4-oxadiazol-2-yl)benzo[d]oxazol-2-amine] is at most 0.1 µM.
Consider `FC(F)(F)c1cc2oc(Nc3nc4ccccc4[nH]3)nc2cn1` [Example 166, N-(1H-Benzo[d]imidazol-2-yl)-6-(trifluoromethyl) oxazolo[4,5-c]pyridin-2-amine], for which the IC50 is at most 1 µM.
As for `N#Cc1nnc(Nc2nc3ccc(F)cc3o2)o1` [Example 218, 5-((6-Fluorobenzo[d]oxazol-2-yl)amino)-1,3,4-oxadiazole-2-carbonitrile], the IC50 was at most 1 µM.
As for `O=C(O)c1csc(Nc2nc3cc(Cl)ccc3o2)n1` [Example 96, 2-((5-Chlorobenzo[d]oxazol-2-yl)amino)thiazole-4-carboxylic acid], the IC50 was at most 10 µM.
Take `CN(C)Cc1nnc(Nc2nc3cc(C(F)(F)F)ccc3o2)o1` [Example 82, N-(5-((Dimethylamino)methyl)-1,3,4-oxadiazol-2-yl)-5-(trifluoromethyl)benzo[d]oxazol-2-amine]: the IC50 was at most 1 µM.
With `COc1cc2oc(Nc3nnco3)nc2cc1F` [Example 206, 5-Fluoro-6-methoxy-N-(1,3,4-oxadiazol-2-yl)benzo[d]oxa-zol-2-amine], the IC50 is at most 1 µM.
The figure for `CNC(=O)c1csc(Nc2nc3cc(C(F)(F)F)ccc3o2)n1` [Example 2, N-Methyl-2-((5-(trifluoromethyl)benzo[d]oxazol-2-yl)amino)thiazole-4-carboxamide] is at most 1 µM; for `NC(=O)c1nnc(Nc2nc3cc(F)ccc3o2)o1` [Example 202, 5-((5-Fluorobenzo[d]oxazol-2-yl)amino)-1,3,4-oxadiazole-2-carboxamide] it is at most 200 µM.
The figure for `Clc1cc(Cl)c2nc(Nc3nnc(CN4CCCC4)[nH]3)oc2c1` [Example 129, 4,6-diChloro-N-(5-(pyrrolidin-1-ylmethyl)-4H-1,2,4-triazol-3-yl)benzo[d]oxazol-2-amine] is at most 1 µM; for `CC(C)(C)c1csc(Nc2nc3cc(C(F)(F)F)ccc3o2)n1` [Example 13, N-(4-(tert-butyl)thiazol-2-yl)-5-(trifluoromethyl)benzo[d]oxazol-2-amine] it is at most 10 µM.
On to `CCOC(=O)c1nnc(Nc2nc3ccc(Cl)cc3o2)o1` [Example 61, Ethyl 5-((6-chlorobenzo[d]oxazol-2-yl)amino)-1,3,4-oxadiazole-2-carboxylate], for which the IC50 is at most 0.1 µM.
For the compound `CC(C)c1ccc2nc(Nc3nnco3)oc2c1` [Example 211, 6-Isopropyl-N-(1,3,4-oxadiazol-2-yl)benzo[d]oxa-zol-2-amine], the IC50 was at most 1 µM.
Next, `Clc1ccc2[nH]c(Nc3nc4cnccc4o3)nc2c1` [Example 168, N-(5-Chloro-1H-benzo[d]imidazol-2-yl)oxazolo [4,5-c]pyridin-2-amine]: at most 1 µM.
The figure for `CC1CCN(Cc2nnc(Nc3nc4cc(C(F)(F)F)ccc4o3)o2)C1` (centres unmarked) [Example 78, N-(5-((3-methylpyrrolidin-1-yl)methyl)-1,3,4-oxadiazol-2-yl)-5-(trifluoromethyl)benzo[d]oxazol-2-amine] is at most 1 µM.
Next, `Clc1ccc2oc(Nc3nc4cnccc4o3)nc2c1` [Example 164, N-(5-Chlorobenzo[d]oxazol-2-yl)oxazolo[4,5-c]pyridin-2-amine]: at most 0.1 µM; `O=C(NC1CC1)c1csc(Nc2nc3cc(Cl)ccc3o2)n1` [Example 17, 2-((5-Chlorobenzo[d]oxazol-2-yl)amino)-N-cyclopropylthiazole-4-carboxamide]: at most 1 µM.
With `CN1CCN(c2cnc(Nc3nc4cc(C(F)(F)F)ccc4o3)s2)CC1` [Example 32, N-(5-(4-Methylpiperazin-1-yl)thiazol-2-yl)-5-(trifluoromethyl)benzo[d]oxazol-2-amine], the IC50 was at most 1 µM.
In the case of `Clc1cccc2nc(Nc3nnco3)oc12` [Example 57, 7-Chloro-N-(1,3,4-oxadiazol-2-yl)benzo[d]oxazol-2-amine], the IC50 is at most 1 µM.
For the compound `FC(F)(F)c1ccc2oc(Nc3nnc(C(F)(F)F)o3)nc2c1` [Example 110, 5-(Trifluoromethyl)-N-(5-(trifluoromethyl)-1,3,4-oxadiazol-2-yl)benzo[d]oxazol-2-amine], the IC50 was at most 100 µM.
Next, `Cn1cnnc1Nc1nc2cc(C(F)(F)F)ccc2o1` [Example 41, N-(4-methyl-4H-1,2,4-triazol-3-yl)-5-(trifluoromethyl)benzo[d]oxazol-2-amine]: at most 1 µM; `Clc1ccc2nc(Nc3nnc(C4CCCO4)o3)oc2c1` (centres unmarked) [Example 213, 6-Chloro-N-(5-(tetrahydrofuran-2-yl)-1,3,4-oxadiazol-2-yl)benzo[d]oxa-zol-2-amine]: at most 0.1 µM.
The figure for `Cc1sc(Nc2nc3cc(C(F)(F)F)ccc3o2)nc1C(=O)NC1CC1` [Example 25, N-Cyclopropyl-5-methyl-2-((5-(trifluoromethyl)benzo[d]oxazol-2-yl)amino)thiazole-4-carboxamide] is at most 1 µM.

The record behind these values is patent publication US20190194179A1, “ANTIBIOTIC COMPOUNDS” (DISCUVA LTD., priority 2016, published 2019).
